The values that follow come from US20160271248A1, “CXCR4 UP- AND DOWN-REGULATION FOR TREATMENT OF DISEASES OR DISORDERS” (priority 2013, published 2016).

Assay [1] concerns Rat cortical neurons. Type of assay: cell-based. Conditions: for effect on CXCL12-induced increase of spine density: AMD3100 100 ng/ml 20 min or PTx 100 ng/ml 18 hrs before CXCL12 (20 nM, 3 hours). As to the method:
(§1) Rat cortical neurons were cultured in the presence of a glial feeder layer, using the bilaminar cell culture model. Due to the presence of glia this culture system largely preserves the in vivo mechanisms of neuronal growth and differentiation, but also allows for direct studies on neurons, which were separated from glia at the time of analysis. Selected experiments were performed using glia-free neuronal cultures, as noted, using previously described protocols (Sengupta et al., 2009, J. Neurosci. 29:2534-2544). Neurons were transfected at the time of plating by Nucleofection (Amaxa), or after 8 days in culture by lipofectamine (Invitrogen). All experiments were conducted at 21 DIV, unless otherwise noted. HDAC4 and control (scrambled) siRNA were obtained from Ambion (s170677 and 4390843), and FHC/scrambled shRNA from GenScript (custom order; shRNA vector also expressed GFP).
For in vitro experiments, neurons were cultured in the presence of glia for 21 days, then fixed and stained for MAP2 (Millipore, 1:1000; detected with Goat antirabbit Alexa 568, Invitrogen 1:250) and counterstained with phalloidin (Invitrogen, 25 μg/mL). For FHC shRNA experiments neurons were identified and analyzed using incorporated GFP expression. Images were acquired with a Zeiss LSM5 laser scanning confocal microscope, using a 63× objective. Dendritic spines were defined as phalloidin- or GFP-positive protrusions clearly connected to the dendrite by a thin shaft. For each neuron 3-4 segments totaling at least […] in length were added to measure spine density, and each neuron was represented as a single data point. Each experiment included 3-4 coverslips from each of 2 or more separate preparations. For in vivo experiments, dendritic spines were visualized using a Golgi stain kit, following instructions from the manufacturer (FD NeuroTechnologies). Brains were rapidly removed, rinsed in H2O, and incubated in the Golgi stain for 2 weeks. The tissue was then cryoprotected in sucrose at 4° C. for 7 days, and frozen in isopentane. Brains were sectioned by cryostat at a thickness of 180 μm, and mounted on gelatin-coated microscope slides. Sections were allowed to dry overnight, and a signal intensification step performed before dehydrating, clearing in xylene, and coversliping with Permount (Fisher Scientific). Spine analysis was performed using Neurolucida software equipped with a 100× objective (FIG. 7A). Pyramidal neurons in layer 2-3 of prefrontal cortex were identified and reconstructed in their entirety, and total spine density for each neuron was reported as a single data point. 3 neurons were analyzed from each brain, and 4-5 brains used for each experimental group.

For assay [2], the system named is layer II/III pyramidal neurons of the prefrontal cortex. Briefly: In vivo dendritic spine analysis (Golgi stain, Neurolucida). Set-up: species or system rat.
Assay [3] deals with layer 2/3 pyramidal neurons in the prefrontal cortex. Type of assay: cell-based, rat.
Assay [4] concerns FHC. Briefly: Neuronal FHC protein levels by Western blot in cultured cortical neurons. It counts as cell-based, rat. Conditions: for FHC protein levels: neurons in the absence of glia, 0.5 to 30 ng/mL, vs vehicle. As to the method: as §1
(§2) Protease and phosphatases inhibitors were added to both buffers.
Rat cortical neurons were cultured in serum-free media in the presence of a glial feeder layer (Shimizu, et al., 2011, J. Vis. Exp. 57). This culture system largely preserves the in vivo environment, due to the presence of glia; however, it still enables direct investigation of neurons that can be separated by the glia before experiments. Selected studies were also performed in neurons grown in the absence of glia for the entire culture period, as indicated (Sengupta, et al., 2009, J. Neurosci. 29(8):2534-44). All experiments were conducted between 8-13 days in vitro (DIV).
Total protein extracts were obtained using standard protocols. […] The following antibodies were used: anti-FHC (3998, Cell Signaling Technology, 1:1,000) and anti-β-actin (A2066, Sigma-Aldrich, 1:5,000).

Assay [5] relates to FHC. Briefly: FHC transcript levels in neurons. Type of assay: cell-based, rat. Conditions: neurons in the absence of glia.
In assay [6] the test system is HDAC4. Briefly: Nuclear HDAC4 levels by immunocytochemistry and western blot. It counts as cell-based, rat. Conditions: pure neuronal culture; CXCL12 20 nM, 30 min. As to the method: as §2
Neurons were fixed in 4% paraformaldehyde, and stained with MAP2 (Millipore, 1:1000) and HDAC4 (Epigentek, 1:150), detected with cy2- and cy3-conjugated secondary antibodies. Cell nuclei were visualized with Hoechst (Invitrogen, 1:2000), and images were acquired with a Zeiss LSM5 laser scanning confocal microscope (Imager.Z1m), mounting 10, 20, 40, and 63× objectives.
On the technique in general: Immunoblotting shows a protein as a band on a membrane.

In assay [7] the test system is CXCR4. Nature of the assay: Multispectral imaging of total CXCR4 optical density within MAP2+ neurons, non-human primate. Conditions: morphine treated macaques; frontal cortex. Type of assay: in vivo, rhesus macaque.
The subject of assay [8] is FHC. Nature of the assay: Multispectral imaging of FHC optical density within MAP2+ neurons, non-human primate. Type of assay: in vivo, rhesus macaque. Conditions: morphine 3 then 5 mg/kg 3 times daily, 90-110 days; frontal cortex.
Assay [9] has as its system pCXCR4-Ser339. Nature of the assay: Multispectral imaging of pCXCR4 optical density within MAP2+ neurons, non-human primate. It counts as in vivo, rhesus macaque. Conditions: morphine treated macaques; frontal cortex.
In assay [10] the test system is HOS cells. Briefly: Calcein assay (labile iron pool). It counts as cell-based, human. Conditions: DFO 100 µM, six hours; empty vector HOS cells. As to the method:
HOS cells transfected with either empty vector (EV), wild type FHC (WT-FHC) or FHC 222 mutant (Mut-FHC) were plated in 96-well plates at 20,000 cells per well. After 24 hours of serum starvation, vehicle or the iron chelator DFO ([…]) were added, respectively, to the untreated EV wells (Control) and to the positive control wells (DFO). Six hours later all cells were washed with PBS, and loaded with the iron-binding dye calcein (200 μg/mL) for 20 minutes. Cells were then washed again in PBS, and calcein fluorescence measured (excitation 485 nm, emission 535 nm), as a measure of the labile iron pool.
Human osteosarcoma cells expressing high levels of CXCR4 (HOS-X4) were transfected with either of these FHC plasmids and selected to generate stable cell lines. First, in order to confirm the differential effects of these proteins on iron sequestration, free intracellular iron levels were compared using the fluorescent probe calcein. Calcein is delivered as a calcein-AM ester, which passes across the plasma membrane into cells and is cleaved by cytosolic esterases to produce membrane-impermeable calcein. The fluorescence of this trapped calcein is quenched following chelation with labile iron, and therefore the degree of quenching is a commonly used estimation of free intracellular iron levels.

The mark [11] stands for this setting: AMD3100 1 μg ICV, 6 hours, CXCL12 20 nM, 3 hours slice incubation.
The mark [12] stands for this setting: held at −70 mV, picrotoxin, AMD3100 ICV or CXCL12 20 nM 3 hrs.

Where two headings read alike, the source gives them in different places.

Take pertussis toxin: the “effect on CXCL12-induced increase of spine density” value in assay [1] is recorded as “blocked”.

For `c1cc(CN2CCCNCCNCCCNCC2)ccc1CN1CCCNCCNCCCNCC1` [AMD3100, 1,1′-[1,4-phenylenebis (methylene)]bis[1,4,8,11-tetraazacyclotetradecane], reference compound], the dendritic spine density result in assay [2] (osmotic pump into left lateral ventricle, 0.75 μg/hour for 4 days) is “similarly able to decrease dendritic spine densities”. Also, the dendritic spine density result in assay [2] (single 1 μg ICV injection, 3-week-old rats, 6 hours post-injection) is recorded as “significantly decreased spine densities”. In addition, in assay [3], the 20-80% rise time stood at 0.31 ± 0.02 ms, the after hyperpolarization is recorded as −12.8 ± 1.5 mV, the mEPSC amplitude was determined as 16.55±0.55 pA and the mEPSC frequency was 2.27±0.33 Hz. Further, in assay [3], the peak spike amplitude came out at 72.6 ± 5.3 mV, the resting membrane potential is −76.9 ± 2.3 mV, the spike half-width is on record as 1.3 ± 0.12 ms and the “spike number generation in response to varying step currents” value is on record as “no drug effect on spike number generation”. For the same compound, in assay [3], the spike threshold was −38.4 ± 3.0 mV. In assay [3] (setting [11]), this compound registered an input resistance of 138.3 ± 9.5 M′Ω. In assay [3] (setting [12]), this compound displayed a sEPSC amplitude of 16.79±0.80 pA and a sEPSC frequency of 3.84±0.65 Hz. The “effect on CXCL12-induced increase of spine density” value in [1] is reported as “blocked”.

As to TNF-α, in assay [4], the FHC protein levels entry is given as “significant increase of FHC protein levels”. In addition, the FHC transcript levels result in assay [5] is reported as “increased”.

Take “CXCL12: recombinant chemokine CXCL12 from Peprotech, endogenous CXCR4 ligand”: the “nuclear HDAC4 levels” value in [6] is reported as “increased nuclear HDAC4 levels”. Moreover, in assay [3], the mEPSC amplitude is 25.25±1.02 pA, the mEPSC frequency worked out at 1.43±0.25 Hz, the resting membrane potential is −76.1 ± 2.3 mV and the sEPSC amplitude is given as 25.32±0.43 pA. This compound registered a sEPSC frequency in [3] of 1.85±0.41 Hz. In assay [3] (setting [11]), this compound yielded a 20-80% rise time of 0.29 ± 0.01 ms, an after hyperpolarization of −12.0 ± 0.9 mV, an input resistance of 121.8 ± 13.2 M′Ω and a peak spike amplitude of 74.0 ± 2.8 mV. In addition, in assay [3] (setting [11]), the spike half-width is 1.2 ± 0.07 ms and the spike threshold is −42.9 ± 2.3 mV. The “spike number generation in response to varying step currents” value in assay [3] (current clamp, AMD3100 ICV or CXCL12 ex vivo vs vehicle) is reported as “no drug effect on spike number generation”. Further, in assay [1] (21 days culture with glial feeder layer, CXCL12 20 nM, 3 hours), the dendritic spine density entry is recorded as “moderate but significant increase in spine density”. The “effects of CXCL12 on spine density in HDAC4-deficient neurons” value in [1] (HDAC4-specific siRNA, pure neuronal population) is “completely prevented”. The dendritic spines result in assay [1] (pure neuronal population, 21 days, 20 nM CXCL12, multiple time points) is reported as “time-dependent increase in dendritic spines”.

`CN1CC[C@]23c4c5ccc(O)c4O[C@H]2[C@@H](O)C=C[C@H]3[C@H]1C5` [morphine]: the FHC levels entry in assay [4] (cultured rat cortical neurons, morphine 1 μm, 24 hours) is on record as “significantly increases FHC levels”. The “total neuronal CXCR4 levels” value in assay [7] was “unchanged”. Further, in assay [8], the “neuronal FHC (OD within MAP2+ neurons)” value is “significantly elevated”. In assay [1] (FHC-specific shRNA vs scrambled), the “ability of morphine to regulate spines in FHC-deficient neurons” value was “blocked”. In addition, the “number of dendritic spines” value in assay [1] (morphine 1 μm, 24 hours, 21 days culture) is listed as “significant decrease in the number of dendritic spines”. Also, the “neuronal pCXCR4 levels” value in [9] is “significant reduction in pCXCR4 levels”.

Consider “IL-1β: Recombinant IL-1β, proinflammatory cytokine, R&D Systems”, for which the FHC protein levels entry in [4] is “significant increase of FHC protein levels”. Besides, the FHC transcript levels entry in assay [5] is given as “did not affect levels of FHC mRNA”.

In the case of `CC(=O)N(O)CCCCCNC(=O)CCC(=O)N(O)CCCCCNC(=O)CCC(=O)N(O)CCCCCN` [DFO, desferrioxamine], the calcein fluorescence entry in assay [10] was “increased”.
